Assay results as given in PubChem BioAssay AID1963972 (Molecular Pharmacology Branch, DTP, NCI, 2024).

Test system: 945468-187-T-J2-PDC spheroids viability
Assay: Anticancer human tumor 945468-187-T-J2-PDC patient-derived rectal carcinoma cell line growth inhibition [PI3K]
Conditions: spheroids with HUVEC and MSC; for IC50: curve of first compound; for viability, T/C: stronger effect = lower value
In short: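 Multi-cell spheroids combine tumor cells with HUVEC and human MSCs, treated with targeted agents alone or with inavolisib, alpelisib, duvelisib or copanlisib. Concentrations fall in half-log steps from at or near clinical Cmax, or from 10 microM where Cmax is unknown; viability read-out.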

[1] = second compound 0.0316 µM, first compound 0.0316 µM
[2] = second compound 0.0316 µM, first compound 0.1 µM
[3] = second compound 0.0316 µM, first compound 0.316 µM
[4] = second compound 0.0316 µM, first compound 1 µM
[5] = second compound 0.0316 µM, first compound 3.16 µM
[6] = second compound 0.0316 µM, first compound 10 µM
[7] = second compound 0.1 µM, first compound 0.0316 µM
[8] = second compound 0.1 µM, first compound 0.1 µM
[9] = second compound 0.1 µM, first compound 0.316 µM
[10] = second compound 0.1 µM, first compound 1 µM
[11] = second compound 0.1 µM, first compound 3.16 µM
[12] = second compound 0.1 µM, first compound 10 µM
[13] = second compound 0.316 µM, first compound 0.0316 µM
[14] = second compound 0.316 µM, first compound 0.1 µM
[15] = second compound 0.316 µM, first compound 0.316 µM
[16] = second compound 0.316 µM, first compound 1 µM
[17] = second compound 0.316 µM, first compound 3.16 µM
[18] = second compound 0.316 µM, first compound 10 µM
[19] = second compound 1 µM, first compound 0.0316 µM
[20] = second compound 1 µM, first compound 0.1 µM
[21] = second compound 1 µM, first compound 0.316 µM
[22] = second compound 1 µM, first compound 1 µM
[23] = second compound 1 µM, first compound 3.16 µM
[24] = second compound 1 µM, first compound 10 µM
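Also: spheroids exposed to compounds for seven days before reading.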

For `C#Cc1c(F)ccc2cc(O)cc(-c3ncc4c(N5CC6CCC(C5)N6)nc(OCC56CCCN5CC(F)C6)nc4c3F)c12` (centres undefined) + Cc1nc(NC(=O)N2CCCC2C(N)=O)sc1-c1ccnc(C(C)(C)C(F)(F)F)c1, the IC50 (second compound 0.0316 µM) was over 10 µM, the IC50 (second compound 0.1 µM) was over 10 µM and the IC50 (second compound 0.316 µM) was over 10 µM. For the same compound, the IC50 (second compound 1 µM) was over 10 µM, the IC50 (second compound 3.16 µM) was over 10 µM and the IC50 (second compound 10 µM) was over 10 µM. It also gave a viability, T/C [1] of 110%, a viability, T/C [2] of 110% and a viability, T/C [3] of 105%. It also gave a viability, T/C [4] of 103%, a viability, T/C [5] of 135% and a viability, T/C [6] of 107%. For the same compound, the viability, T/C [7] was 125%, the viability, T/C [8] was 114% and the viability, T/C [9] was 102%. For the same compound, the viability, T/C [10] was 107%, the viability, T/C [11] was 136% and the viability, T/C [12] was 105%. For the same compound, the viability, T/C [13] was 103%, the viability, T/C [14] was 100% and the viability, T/C [15] was 116%. It also gave a viability, T/C [16] of 102%, a viability, T/C [17] of 164% and a viability, T/C [18] of 99.1%. For the same compound, the viability, T/C [19] was 125%, the viability, T/C [20] was 93.6% and the viability, T/C [21] was 109%. For the same compound, the viability, T/C [22] was 116%, the viability, T/C [23] was 106% and the viability, T/C [24] was 90.5%. It also gave a viability, T/C (second compound 3.16 µM, first compound 0.0316 µM) of 85.6%, a viability, T/C (second compound 3.16 µM, first compound 0.1 µM) of 85.8% and a viability, T/C (second compound 3.16 µM, first compound 0.316 µM) of 95.4%. The viability, T/C (second compound 3.16 µM, first compound 1 µM) was 94.1%, the viability, T/C (second compound 3.16 µM, first compound 3.16 µM) was 94% and the viability, T/C (second compound 3.16 µM, first compound 10 µM) was 117%. It also gave a viability, T/C (second compound 10 µM, first compound 0.0316 µM) of 85.5%, a viability, T/C (second compound 10 µM, first compound 0.1 µM) of 73.2% and a viability, T/C (second compound 10 µM, first compound 0.316 µM) of 99%. It also gave a viability, T/C (second compound 10 µM, first compound 1 µM) of 92.6%, a viability, T/C (second compound 10 µM, first compound 3.16 µM) of 77% and a viability, T/C (second compound 10 µM, first compound 10 µM) of 80.9%.
In the case of `CC1(C)CCC(CN2CCN(c3ccc(C(=O)NS(=O)(=O)c4ccc(NCC5CCOCC5)c([N+](=O)[O-])c4)c(Oc4cnc5[nH]ccc5c4)c3)CC2)=C(c2ccc(Cl)cc2)C1` + CC(Nc1ccc2c(c1)OCCn1cc(N3C(=O)OCC3C(F)F)nc1-2)C(N)=O, the IC50 (second compound 0.00316 µM) is reported as 7.88 µM, the IC50 (second compound 0.01 µM) is reported as over 10 µM and the IC50 (second compound 0.0316 µM) is reported as 7.6 µM. It also gave an IC50 (second compound 0.1 µM) of 7.73 µM, an IC50 (second compound 0.316 µM) of 6.74 µM and an IC50 (second compound 1 µM) of over 10 µM. It also gave a viability, T/C (second compound 0.00316 µM, first compound 0.0316 µM) of 113%, a viability, T/C (second compound 0.00316 µM, first compound 0.1 µM) of 100% and a viability, T/C (second compound 0.00316 µM, first compound 0.316 µM) of 96.6%. For the same compound, the viability, T/C (second compound 0.00316 µM, first compound 1 µM) was 118%, the viability, T/C (second compound 0.00316 µM, first compound 3.16 µM) was 93.2% and the viability, T/C (second compound 0.00316 µM, first compound 10 µM) was 38.8%. For the same compound, the viability, T/C (second compound 0.01 µM, first compound 0.0316 µM) was 94.2%, the viability, T/C (second compound 0.01 µM, first compound 0.1 µM) was 104% and the viability, T/C (second compound 0.01 µM, first compound 0.316 µM) was 118%. It also gave a viability, T/C (second compound 0.01 µM, first compound 1 µM) of 98.3%, a viability, T/C (second compound 0.01 µM, first compound 3.16 µM) of 89.4% and a viability, T/C (second compound 0.01 µM, first compound 10 µM) of 51.7%. For the same compound, the viability, T/C [1] was 96.1%, the viability, T/C [2] was 113% and the viability, T/C [3] was 95.3%. For the same compound, the viability, T/C [4] was 88.9%, the viability, T/C [5] was 101% and the viability, T/C [6] was 34.6%. The viability, T/C [7] was 98.9%, the viability, T/C [8] was 92.2% and the viability, T/C [9] was 92.4%. The viability, T/C [10] was 92.5%, the viability, T/C [11] was 98.6% and the viability, T/C [12] was 37.1%. The viability, T/C [13] was 88.1%, the viability, T/C [14] was 89% and the viability, T/C [15] was 84.3%. The viability, T/C [16] was 89.6%, the viability, T/C [17] was 83.1% and the viability, T/C [18] was 32.7%. It also gave a viability, T/C [19] of 69.2%, a viability, T/C [20] of 81.7% and a viability, T/C [21] of 94.8%. The viability, T/C [22] was 66%, the viability, T/C [23] was 77.8% and the viability, T/C [24] was 52.3%.
